# According to ChEMBL document CHEMBL5034001 (J Med Chem, 2021):
# Calls of active or inactive are those of the source. No cut-off for these calls is given here.
# Assays:
# [1] = test system: SR; test: Induction of G1 cell cycle arrest in human SR cells at 100 nM after 24 to 48 hrs; type: functional, cell-based; details: time 24-48 hrs
# [2] = target: Serine/threonine-protein kinase ULK1 (Homo sapiens) (UniProt O75385); test: Binding affinity to wild-type human partial length ULK1 (M1 to T309 residues) expressed in mammalian expression system assessed as residual binding level at 100 nM by Kinomescan method relative to control
# [3] = test system: NCI-H1975; test: Antiproliferative activity against human H1975 cells overexpressing EGFR L858R/T790M mutant assessed as cell growth inhibition after 72 hrs; type: functional, cell-based; details: NCI-H1975, 72 h
# [4] = target: Serine/threonine-protein kinase PLK4 (Homo sapiens) (UniProt O00444); test: Binding affinity to wild-type human partial length PLK4 (M1 to S273 residues) expressed in mammalian expression system assessed as residual binding level at 100 nM by Kinomescan method relative to control
# [5] = test system: Epidermal growth factor receptor (Homo sapiens), P00533 [L858R,T790M]; test: Induction of EGFR L858R/T790M mutant degradation in human […] at 100 nM by Western blot analysis; type: cell-based
# [6] = test system: MDA-MB-231; test: Induction of G1 cell cycle arrest in human MDA-MB-231 cells at 100 nM after 24 to 48 hrs; type: functional, cell-based; details: time 24-48 hrs
# [7] = target: Ribosomal protein S6 kinase alpha-3 (Homo sapiens) (UniProt P51812); test: Binding affinity to wild-type human partial length N- terminal RSK2 kinase domain 1 (M1 to D394 residues) expressed in mammalian expression system assessed as residual binding level at 100 nM by Kinomescan method relative to control
# [8] = Metabolic stability in human liver microsomes assessed as half life preincubated for 10 mins followed by NADPH regenerating system addition and measured after 10 mins by LC-MS/MS analysis; type: ADME, Microsome
# [9] = test system: Mast/stem cell growth factor receptor Kit (Homo sapiens), P10721 [D816V]; test: Binding affinity to human partial length KIT D816V mutant (I571 to D952 residues) expressed in bacterial expression system assessed as residual binding level at 100 nM by Kinomescan method relative to control
# [10] = target: Protein-tyrosine kinase 2-beta (Homo sapiens) (UniProt Q14289); test: Induction of PYK2 degradation in human MDA-MB-231 cells at 10 nM after 1 to 2 hrs by Western blot analysis; type: cell-based; details: time 1-2 hrs
# [11] = target: ALK tyrosine kinase receptor (Homo sapiens, UniProt Q9UM73, G1202R); test: Binding affinity to ALK G1202R mutant (unknown origin)
# [12] = AUC in […] at 10 mg/kg, po or 2 mg/kg, iv measured upto 24 hrs; type: ADME, organism-based; parameters: dose 10 mg/kg, time <=24; details: in vivo
# [13] = target: T1, ALK tyrosine kinase receptor (Homo sapiens, UniProt Q9UM73); test: Induction of ALK degradation in human SR cells at 100 nM pretreated with proteosome inhibitor MLN4924 for 4 hrs followed by compound addition and measured after 16 hrs by Western blot analysis; type: cell-based
# [14] = Half life in […] at 10 mg/kg, po or 2 mg/kg, iv measured upto 24 hrs; type: ADME, organism-based; details: in vivo
# [15] = test system: NCI-H2228; test: Down regulation of FAK in human NCI-H2228 cells at 1 to 1000 nM after 16 hrs by Western blot analysis; type: functional, cell-based; details: dose 1-1000 nM
# [16] = test system: Calu-1; test: Induction of G1 cell cycle arrest in human Calu-1 cells at 100 nM after 24 to 48 hrs; type: functional, cell-based; details: time 24-48 hrs
# [17] = target: Focal adhesion kinase 1 (Homo sapiens) (UniProt Q05397); test: Induction of FAK degradation in human Calu-1 cells at 1 nM after 16 hrs by Western blot analysis; type: cell-based
# [18] = target: Protein-tyrosine kinase 2-beta (Homo sapiens) (UniProt Q14289); test: Induction of PYK2 degradation in human SR cells at 1 nM after 16 hrs by Western blot analysis; type: cell-based
# [19] = Toxicity in NU/NU mouse at 100 mg/kg; type: organism-based; details: in vivo
# [20] = target: T1, ALK tyrosine kinase receptor; test: Induction of ALK degradation in human SR cells at 10 uM after 16 hrs by Western blot analysis; type: cell-based
# [21] = test system: SR; test: Down regulation of FER in human SR cells at 0.1 to 1000 nM after 16 hrs by Western blot analysis; type: functional, cell-based; details: dose 0.1-1000 nM
# [22] = test system: A549; test: Down regulation of RSK1 in human A549 cells at 1 to 1000 nM after 16 hrs by Western blot analysis; type: functional, cell-based; details: dose 1-1000 nM
# [23] = test system: Calu-1; test: Down regulation of RSK1 in human Calu-1 cells at 1 to 1000 nM after 16 hrs by Western blot analysis; type: functional, cell-based; details: dose 1-1000 nM
# [24] = target: Focal adhesion kinase 1 (Homo sapiens) (UniProt Q05397); test: Induction of FAK degradation in human A549 cells at 1 nM after 16 hrs by Western blot analysis; type: cell-based
# [25] = test system: Epidermal growth factor receptor (Homo sapiens), P00533 [T790M]; test: Binding affinity to human partial length EGFR T790M mutant (R669 to G1022 residues) expressed in mammalian expression system assessed as residual binding level at 100 nM by Kinomescan method relative to control
# [26] = target: Signal transducer and activator of transcription 3 (Homo sapiens) (UniProt P40763); test: Inhibition of STAT3 downstream signalling in human SR cells assessed as reduction in pSTAT3 level at 10 nM by Western blot analysis; type: cell-based
# [27] = test system: A549; test: Down regulation of FAK in human A549 cells at 1 to 1000 nM after 16 hrs by Western blot analysis; type: functional, cell-based; details: dose 1-1000 nM
# [28] = test system: Calu-1; test: Down regulation of C-myc protein expression in human Calu-1 cells at 1 to 500 nM after 48 hrs by Western blot analysis; type: functional, cell-based; details: dose 1-500 nM
# [29] = target: Tyrosine-protein kinase receptor UFO (Homo sapiens) (UniProt P30530); test: Binding affinity to wild-type human partial length AXL (R497 to Y821 residues) expressed in bacterial expression system assessed as residual binding level at 100 nM by Kinomescan method relative to control
# [30] = test system: Calu-1; test: Induction of apoptosis in human Calu-1 cells at 100 nM after 72 hrs; type: functional, cell-based
# [31] = test system: Leucine-rich repeat serine/threonine-protein kinase 2 (Homo sapiens), Q5S007 [G2019S]; test: Binding affinity to human partial length LRRK2 G2019S mutant (H970 to E2527 residues) expressed in mammalian expression system assessed as residual binding level at 100 nM by Kinomescan method relative to control
# [32] = test system: HEK-293T; test: Antiproliferative activity against human 293T cells overexpressing ALK G1202R mutant assessed as cell growth inhibition after 72 hrs; type: functional, cell-based
# [33] = test system: Calu-1; test: Down regulation of cyclin D1 protein expression in human Calu-1 cells at 1 to 500 nM after 48 hrs by Western blot analysis; type: functional, cell-based; details: dose 1-500 nM
# [34] = test system: MDA-MB-231; test: Inhibition of cell migration in human MDA-MB-231 cells assessed as wound confluence ratio at 10 nM after 48 hrs by wound healing assay; type: functional
# [35] = test system: MDA-MB-231; test: Induction of apoptosis in human MDA-MB-231 cells at 100 nM after 72 hrs; type: functional, cell-based
# [36] = test system: Receptor-type tyrosine-protein kinase FLT3 (Homo sapiens), P36888 [D835V]; test: Binding affinity to human partial length FLT3 D835V mutant (V592 to Y969 residues) expressed in bacterial expression system assessed as residual binding level at 100 nM by Kinomescan method relative to control
# Protein-tyrosine kinase 2-beta (Homo sapiens), sequence (Q14289 whole entry, looked up): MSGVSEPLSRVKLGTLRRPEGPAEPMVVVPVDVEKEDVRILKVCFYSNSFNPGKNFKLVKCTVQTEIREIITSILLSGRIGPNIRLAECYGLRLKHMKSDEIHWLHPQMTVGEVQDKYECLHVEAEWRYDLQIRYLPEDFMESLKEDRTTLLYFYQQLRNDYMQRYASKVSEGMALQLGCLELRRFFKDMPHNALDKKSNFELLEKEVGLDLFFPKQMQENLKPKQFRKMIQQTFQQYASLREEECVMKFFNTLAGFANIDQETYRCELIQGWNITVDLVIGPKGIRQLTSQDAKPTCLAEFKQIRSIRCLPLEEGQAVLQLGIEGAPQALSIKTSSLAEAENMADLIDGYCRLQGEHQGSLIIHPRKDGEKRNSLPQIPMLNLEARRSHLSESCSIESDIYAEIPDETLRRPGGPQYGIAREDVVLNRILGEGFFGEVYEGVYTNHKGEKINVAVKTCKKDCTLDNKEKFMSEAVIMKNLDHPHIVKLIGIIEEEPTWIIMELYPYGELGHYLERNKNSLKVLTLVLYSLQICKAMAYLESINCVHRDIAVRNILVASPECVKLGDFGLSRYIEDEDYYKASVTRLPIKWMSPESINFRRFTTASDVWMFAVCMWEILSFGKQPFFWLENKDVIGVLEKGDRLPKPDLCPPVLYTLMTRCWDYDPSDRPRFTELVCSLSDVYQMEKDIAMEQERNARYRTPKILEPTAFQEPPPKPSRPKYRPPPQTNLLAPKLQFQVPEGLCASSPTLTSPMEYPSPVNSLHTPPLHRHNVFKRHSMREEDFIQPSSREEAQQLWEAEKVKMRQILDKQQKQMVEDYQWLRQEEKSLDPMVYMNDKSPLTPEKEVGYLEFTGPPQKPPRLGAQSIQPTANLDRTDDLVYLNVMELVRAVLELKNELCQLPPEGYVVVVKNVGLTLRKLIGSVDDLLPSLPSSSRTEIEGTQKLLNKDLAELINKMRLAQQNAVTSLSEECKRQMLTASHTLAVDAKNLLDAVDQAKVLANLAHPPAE
# T1 sequence (Q9UM73 19-1620 limits assumed): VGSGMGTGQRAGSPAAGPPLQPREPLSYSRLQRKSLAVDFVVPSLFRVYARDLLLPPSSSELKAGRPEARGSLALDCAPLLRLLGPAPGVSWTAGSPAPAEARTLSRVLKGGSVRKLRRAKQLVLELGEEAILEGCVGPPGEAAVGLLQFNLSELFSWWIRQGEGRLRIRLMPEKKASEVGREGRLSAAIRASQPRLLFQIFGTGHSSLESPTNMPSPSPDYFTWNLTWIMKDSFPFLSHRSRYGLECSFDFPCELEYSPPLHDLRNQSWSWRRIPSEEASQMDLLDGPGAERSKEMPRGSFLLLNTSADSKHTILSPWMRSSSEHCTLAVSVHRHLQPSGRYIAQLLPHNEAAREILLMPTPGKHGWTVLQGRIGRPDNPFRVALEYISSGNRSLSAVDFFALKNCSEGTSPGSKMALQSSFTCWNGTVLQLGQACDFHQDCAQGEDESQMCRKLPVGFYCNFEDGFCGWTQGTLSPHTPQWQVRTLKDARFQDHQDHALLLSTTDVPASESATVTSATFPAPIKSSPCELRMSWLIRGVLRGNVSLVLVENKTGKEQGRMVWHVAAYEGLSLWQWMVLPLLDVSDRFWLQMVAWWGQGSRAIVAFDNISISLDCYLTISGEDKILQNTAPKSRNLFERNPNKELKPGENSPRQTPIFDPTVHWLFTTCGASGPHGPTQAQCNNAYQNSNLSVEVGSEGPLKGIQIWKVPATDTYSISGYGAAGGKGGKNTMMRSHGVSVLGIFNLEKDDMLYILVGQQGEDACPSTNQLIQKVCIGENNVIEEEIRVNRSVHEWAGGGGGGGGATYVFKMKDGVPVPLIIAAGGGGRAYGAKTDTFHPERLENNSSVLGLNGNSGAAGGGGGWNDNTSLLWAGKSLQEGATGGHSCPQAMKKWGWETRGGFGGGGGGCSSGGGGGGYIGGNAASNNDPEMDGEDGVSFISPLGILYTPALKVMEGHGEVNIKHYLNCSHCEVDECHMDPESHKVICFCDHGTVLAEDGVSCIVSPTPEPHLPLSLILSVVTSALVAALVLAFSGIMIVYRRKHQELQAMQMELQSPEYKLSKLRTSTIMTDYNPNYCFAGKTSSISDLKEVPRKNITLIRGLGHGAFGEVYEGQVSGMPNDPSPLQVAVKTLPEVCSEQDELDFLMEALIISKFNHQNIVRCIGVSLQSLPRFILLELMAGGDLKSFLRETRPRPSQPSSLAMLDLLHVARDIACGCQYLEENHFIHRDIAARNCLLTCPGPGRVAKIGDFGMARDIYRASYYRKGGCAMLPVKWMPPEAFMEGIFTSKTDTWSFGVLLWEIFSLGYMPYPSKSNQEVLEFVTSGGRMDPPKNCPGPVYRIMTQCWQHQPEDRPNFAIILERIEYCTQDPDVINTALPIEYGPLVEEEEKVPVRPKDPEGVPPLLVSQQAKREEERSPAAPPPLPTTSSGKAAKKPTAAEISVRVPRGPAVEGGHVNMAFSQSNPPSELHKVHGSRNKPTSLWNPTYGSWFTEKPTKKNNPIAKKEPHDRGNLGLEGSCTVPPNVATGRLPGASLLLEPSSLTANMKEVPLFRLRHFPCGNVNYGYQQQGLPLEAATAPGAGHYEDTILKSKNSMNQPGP
# Focal adhesion kinase 1 (Homo sapiens), sequence (Q05397 2-1052 limits assumed): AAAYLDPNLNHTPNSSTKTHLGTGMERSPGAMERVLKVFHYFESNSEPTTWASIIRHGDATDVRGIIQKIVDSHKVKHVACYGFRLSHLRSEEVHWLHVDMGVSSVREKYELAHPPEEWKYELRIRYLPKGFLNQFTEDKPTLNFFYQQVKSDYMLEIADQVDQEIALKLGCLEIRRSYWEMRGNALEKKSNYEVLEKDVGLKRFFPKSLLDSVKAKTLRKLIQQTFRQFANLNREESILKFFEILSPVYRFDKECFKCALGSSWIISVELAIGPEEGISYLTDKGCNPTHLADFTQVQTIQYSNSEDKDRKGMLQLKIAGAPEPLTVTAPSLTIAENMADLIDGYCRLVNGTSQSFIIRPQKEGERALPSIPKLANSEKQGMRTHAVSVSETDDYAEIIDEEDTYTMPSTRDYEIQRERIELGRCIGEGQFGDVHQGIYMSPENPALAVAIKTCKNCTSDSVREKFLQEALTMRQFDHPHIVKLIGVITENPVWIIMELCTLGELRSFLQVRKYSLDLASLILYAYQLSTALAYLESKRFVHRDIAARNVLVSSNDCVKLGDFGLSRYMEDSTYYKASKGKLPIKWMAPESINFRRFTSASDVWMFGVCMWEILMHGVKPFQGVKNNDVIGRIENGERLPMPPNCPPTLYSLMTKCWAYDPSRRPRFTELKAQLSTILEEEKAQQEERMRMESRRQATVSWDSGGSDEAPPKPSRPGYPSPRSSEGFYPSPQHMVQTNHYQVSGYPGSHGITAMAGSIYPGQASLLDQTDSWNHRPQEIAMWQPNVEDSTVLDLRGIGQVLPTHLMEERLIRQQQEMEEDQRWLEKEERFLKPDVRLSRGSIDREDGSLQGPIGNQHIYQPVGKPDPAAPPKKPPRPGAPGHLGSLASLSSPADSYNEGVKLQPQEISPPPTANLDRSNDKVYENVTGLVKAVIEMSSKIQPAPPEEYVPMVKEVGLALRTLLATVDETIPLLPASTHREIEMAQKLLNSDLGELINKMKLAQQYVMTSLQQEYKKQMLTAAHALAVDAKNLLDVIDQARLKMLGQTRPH
# Mast/stem cell growth factor receptor Kit (Homo sapiens), P10721 [D816V], sequence (P10721 whole entry D816V, the tested form may be a part): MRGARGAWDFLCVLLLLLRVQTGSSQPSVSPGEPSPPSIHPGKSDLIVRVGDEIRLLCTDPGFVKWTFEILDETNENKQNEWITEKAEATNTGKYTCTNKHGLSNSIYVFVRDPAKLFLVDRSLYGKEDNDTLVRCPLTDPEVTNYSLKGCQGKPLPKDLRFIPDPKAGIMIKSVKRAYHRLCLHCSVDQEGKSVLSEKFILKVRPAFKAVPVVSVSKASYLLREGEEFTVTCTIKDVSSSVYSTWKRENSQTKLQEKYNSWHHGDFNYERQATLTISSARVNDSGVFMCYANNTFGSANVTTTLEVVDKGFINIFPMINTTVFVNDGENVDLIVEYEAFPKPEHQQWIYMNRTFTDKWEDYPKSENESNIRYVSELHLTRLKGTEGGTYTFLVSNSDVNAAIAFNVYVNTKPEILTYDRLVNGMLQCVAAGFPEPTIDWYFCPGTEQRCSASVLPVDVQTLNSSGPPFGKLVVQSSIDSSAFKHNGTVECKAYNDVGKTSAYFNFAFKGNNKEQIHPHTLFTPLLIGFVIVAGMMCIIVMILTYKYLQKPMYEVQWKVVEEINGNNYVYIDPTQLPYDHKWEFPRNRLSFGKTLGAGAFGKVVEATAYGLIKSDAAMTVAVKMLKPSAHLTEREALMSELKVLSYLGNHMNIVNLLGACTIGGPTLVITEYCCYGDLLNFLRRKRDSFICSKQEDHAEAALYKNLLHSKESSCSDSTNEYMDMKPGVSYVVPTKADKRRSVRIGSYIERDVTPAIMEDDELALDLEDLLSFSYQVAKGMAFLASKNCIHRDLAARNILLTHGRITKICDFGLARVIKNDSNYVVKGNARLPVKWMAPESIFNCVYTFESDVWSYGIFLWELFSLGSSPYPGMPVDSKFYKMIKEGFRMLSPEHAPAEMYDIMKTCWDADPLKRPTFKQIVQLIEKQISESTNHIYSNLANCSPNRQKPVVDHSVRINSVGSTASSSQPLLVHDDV
# ALK tyrosine kinase receptor (Homo sapiens, UniProt Q9UM73, G1202R), sequence (Q9UM73 19-1620 G1202R limits assumed): as the sequence (Q9UM73 19-1620 limits assumed) above, with G1184R counted along it
structure (smiles),measurement,setting,value
COc1cc(N2CCC(N3CCN(C(=O)CNc4cccc5c4C(=O)N(C4CCC(=O)NC4=O)C5=O)CC3)CC2)ccc1Nc1ncc(Cl)c(Nc2ccccc2P(C)(C)=O)n1 (stereo unspecified),Activity,[1],Active
same,Activity,[2],1.6%
same,IC50,[3],42 nM
same,Activity,[4],8.3%
same,Activity,[5],Active
same,Activity,[6],Active
same,Activity,[7],2.1%
same,half-life,[8],4.65 h
same,Activity,[9],8.1%
same,Activity,[10],Active
same,IC50,[11],6.6 nM
same,AUC at 24 h,[12],1560 ng·h/mL
same,Activity,[13],inactive
same,half-life,[14],7.1 h
same,Activity,[15],Active
same,Activity,[16],Active
same,Activity,[17],Active
same,Activity,[18],Active
same,Activity,[19],Non-Toxic
same,Activity,[20],Active
same,Activity,[21],Active
same,Activity,[22],Active
same,Activity,[23],Active
same,Activity,[24],Active
same,Activity,[25],5.7%
same,inhibition,[26],Active
same,Activity,[27],Active
same,Activity,[28],Active
same,Activity,[29],9.5%
same,Activity,[30],inactive
same,Activity,[31],0%
same,IC50,[32],21 nM
same,Activity,[33],Active
same,inhibition at 0.01 µM,[34],48%
same,Activity,[35],inactive
same,Activity,[36],0%
